# Experimental data as given in paper PMC8389922, “First-in-Class Cyclic Temporin L Analogue: Design, Synthesis, and Antimicrobial Assessment” (Journal of Medicinal Chemistry, 2021).
# Bridge positions count the residues as written; N and C are the ends. Square brackets hold non-standard residues; d marks the D form. Peptide text beside a SMILES is read from it.
# Assays:
# [1] = system: S. aureus ATCC 43300, a methicillin-resistant strain (MRSA); type: cell-based, Staphylococcus aureus
# Protocol: Thus, 12 was further tested against S. aureus ATCC 43300, a methicillin-resistant strain (MRSA), and compared with the linear precursor 9. […] No growth was observed after 24 h. Peptide 9 was bactericidal as well, by killing MRSA within 10 min, but at a higher concentration (25 μM).
# The bacterial strains used in the antimicrobial assays were the Gram-negative E. coli ATCC 25922, P. aeruginosa ATCC 27853, A. baumannii ATCC 19606, the Gram-positive S. aureus ATCC 25923, S. epidermidis ATCC 12228, and B. megaterium Bm11. Methicillin-resistant S. aureus (MRSA) ATCC 43300 was obtained from Culture Collection Center of School of Basic Medical Sciences of Lanzhou University (China).
# The determination of MICs was conducted as previously reported.[61] Aliquots of 50 μL of bacterial culture appropriately diluted were added to each well of a 96-well plate to reach a final cell density of 1 × 10^6 CFU/mL and a final peptide concentration ranging from 100 to 0.78 μM (final volume 100 μL).
# [2] = system: preformed biofilm of A. baumannii ATCC 19606; settings: ATCC 19606, 20 h
# Protocol: (§1) Biofilm viability was determined as indicated in the Materials and General Procedures section and expressed as a percentage compared to that of untreated samples (100%). Values are the mean of at least three replicates ± SEM. Data are considered to be statistically significant as follows: *p < 0.05; ***p < 0.001; ****p < 0.0001. Biofilm eradication concentration 90, BEC90, was defined as the concentration able to reduce at least 90% of biofilm cells. TEXT PRINTED IN THE PICTURE: 9: S. aureus ATCC 25923: BEC90 = 25 μM; A. baumannii ATCC 19606: BEC90 > 100 μM | 12: S. aureus ATCC 25923: BEC90 = 12.5 μM; A. baumannii ATCC 19606: BEC90 = 25 μM
# (§2) Preformed biofilms of S. aureus ATCC 25923 and A. baumannii ATCC 19606 were obtained as previously reported.[77] Microbial cultures were grown in Luria-Bertani broth (LB) at 37 °C to an optical density (OD) of 0.8 (λ = 590 nm) and then diluted in LB to a cell density of 1 × 10^6 colony-forming units (CFUs)/mL. Aliquots of 100 μL were dispensed into the wells of a 96-well plate, which was incubated for 20 h at 37 °C to allow biofilm formation. The medium containing planktonic cells was then aspirated from the wells and washed twice with 150 μL of phosphate-buffered saline (PBS) to remove any nonadherent cells. […] After treatment, each well was rinsed twice with PBS, as previously described. Then, 150 μL of MTT solution (0.5 mg/mL) were added to each well to evaluate biofilm cell viability. The plates were incubated at 37 °C for 4 h in the dark, and the reaction was stopped by adding sodium dodecyl sulfate (SDS) (at a final concentration of 5% v/v). The absorbance of each well was recorded at 570 nm using a microplate reader (Infinite M200; Tecan, Salzburg, Austria), and the percentage of biofilm cells viability was calculated with respect to the untreated samples (100%).
# [3] = system: preformed biofilm of S. aureus ATCC 25923
# Protocol: as §1, §2
# ANTS/DPX leakage assay = settings: peptide 5–50 μM, 10 min
# Protocol: The destabilization of membrane vesicles by 12 was explored measuring its effect on the release of encapsulated fluorophores in both LUVs mimicking Gram-positive and Gram-negative membranes. ANTS and DPX fluorophores were encapsulated in LUVs, and ANTS release was measured to evaluate the transient pore formation.
# The dry lipid films (Cf = 100 μM) were dissolved with a solution of ANTs (12.5 mM) and DPX (45 mM) in water (2 mL) and then lyophilized overnight. The lipid films with encapsulated ANTS and DPX were hydrated with PBS 1× buffer and treated to obtain LUVs using the extrusion method.[81] Then, nonencapsulated ANTs and DPX were separated from liposomes by gel filtration using a Sephadex G-50 column (1.5 cm × 10 cm) at room temperature. Initially, liposomes contain both ANTs and DPX, and DPX efficiently quenches ANT fluorescence by collisional transfer.[82] When LUVs were treated with peptide concentrations of 5, 10, 15, 20, 30, and 50 μM, we measured the leakage of vesicles by measuring the dequenching of ANTS released into the medium. Changes in the fluorescence of 2 mL of ANTS/DPX LUV samples were monitored setting an excitation fluorescence at 385 nm (slit width, 5 nm) and a fluorescence emission at 512 nm (slit width, 5 nm) for 10 min after the addition of the peptide. […]
# [4] = 90% fresh human serum (male AB plasma), 37 ± 1 °C, peptide 0.2 mM, MeCN precipitation, RP-UHPLC peak area at 220 nm, triplicate
# in vitro = settings: male, human, 90% fresh human serum
structure (smiles),measurement,setting,value
CC[C@H](C)[C@H](NC(=O)[C@H](CCCNC(=N)N)NC(=O)[C@@H]1CCC(=O)NCCCC[C@H](NC(=O)[C@H](Cc2ccccc2)NC(=O)[C@H](Cc2c[nH]c3ccccc23)NC(=O)[C@@H]2CCCN2C(=O)[C@@H](NC(=O)[C@@H](N)Cc2ccccc2)C(C)C)C(=O)N[C@@H](CCCCN)C(=O)N[C@@H](Cc2ccccc2)C(=O)N[C@H](CC(C)C)C(=O)N1)C(=O)N[C@@H](CC(C)C)C(N)=O [compound 12] (H-FVPWFKKF[dL]ERIL-NH2; lactam 6-10),MIC S. aureus ATCC 43300 (MRSA),[1],12.5 µM
same,Biofilm Eradication Concentration 90 (BEC90) A. baumannii ATCC 19606,[2],25 µM
same,reduction of viable S. aureus biofilm cells,"[3]; 2 h treatment, from 100 to 12.5 μM, with respect to untreated samples",more than 90%
same,Biofilm Eradication Concentration 90 (BEC90) S. aureus ATCC 25923,"[3]; preformed 20 h biofilm, 2 h treatment in PBS at 37 °C, MTT, concentration reducing at least 90% of biofilm cells",12.5 µM
same,leakage of LUVs (ANTS release),ANTS/DPX leakage assay; LUVs mimicking Gram-negative membranes,significant leakage ability
same,leakage of LUVs (ANTS release),ANTS/DPX leakage assay; LUVs mimicking Gram-positive membranes,low leakage effect
same,time to complete degradation in human serum,[4],12 h
same,half-life at 0.2 mM,in vitro,~360 min
same,"remaining at 1.5 h, 0.2 mM",in vitro,~70%
